Here are results for ten compounds from US20050054536A1, “Beta-amino-alpha-cyanoacrylates and their use as herbicides” (priority 2001, published 2005).

In data set [1] the test system is Pharbitis purpurea. As to the kind of experiment: greenhouse experiment, post-emergence treatment, herbicidal activity. The class given is in vivo. To be noted: application rate 1.0 kg/ha. An excerpt: (§1) The seeds of the test plants were sown separately for each species. For the post-emergence treatment, the test plants were first grown to a height of from 3 to 15 cm, depending on the plant habit, and only then treated with the active compounds which had been suspended or emulsified in water. The test plants were for this purpose either sown directly and grown in the same containers, or they were first grown separately as seedlings and transplanted into the test containers a few days prior to treatment. The application rate for the post-emergence treatment was 0.5 or 1.0 kg of a.s. (active substance)/ha. Depending on the species, the plants were kept at from 10 to 25° C. or from 20 to 35° C. The test period extended over 2 to 4 weeks. During this time, the plants were tended, and their response to the individual treatments was evaluated. Evaluation was carried out using a scale from 0 to 100. 100 means no emergence of the plants, or complete destruction of at least the above-ground parts, and 0 means no damage, or normal course of growth. The plants used in the greenhouse experiments were of the following species: [table]

Data set [2] relates to Setaria faberii. As to the kind of experiment: greenhouse experiment, pre-emergence treatment, herbicidal activity. The class given is in vivo. The conditions noted are these: application rate 1.0 kg/ha. An excerpt:
(§2) The seeds of the test plants were sown separately for each species. For the pre-emergence treatment, directly after sowing the active compounds, which had been suspended or emulsified in water, were applied by means of finely distributing nozzles. The containers were irrigated gently to promote germination and growth and subsequently covered with transparent plastic hoods until the plant had rooted. This cover caused uniform germination of the test plants, unless this was adversely affected by the active compounds. The application rate for a pre-emergence treatment was 0.5 or 1.0 kg of a.s. (active substance)/ha. Depending on the species, the plants were kept at from 10 to 25° C. or from 20 to 35° C. The test period extended over 2 to 4 weeks. During this time, the plants were tended, and their response to the individual treatments was evaluated. Evaluation was carried out using a scale from 0 to 100. 100 means no emergence of the plants, or complete destruction of at least the above-ground parts, and 0 means no damage, or normal course of growth. The plants used in the greenhouse experiments were of the following species: [table]

The subject of data set [3] is Setaria faberii. Description: greenhouse experiment, post-emergence treatment, herbicidal activity. The class given is in vivo. The conditions noted are these: application rate 1.0 kg/ha.
Description: as §1

Data set [4] concerns Amaranthus retroflexus. As to the kind of experiment: greenhouse experiment, pre-emergence treatment, herbicidal activity. The class given is in vivo. To be noted: application rate 1.0 kg/ha.
Description: as §2

The test system of data set [5] is Digitaria sanguinalis. The data set is described as above. The conditions noted are these: application rate 1.0 kg/ha. The class given is in vivo.
Description: as §2

In the case of `CCOC(=O)/C(C#N)=C(\N)C(C)(C)Br` [Example 2.10], the melting point stood at 46 °C.

As for `CCOC(=O)/C(C#N)=C(\N)C(C)(C)Cl` [Example 2.9], the melting point was determined as 56 °C.

Compound `CCC(CC)/C(N)=C(\C#N)C(=O)OC` [Example 2.5] showed a melting point of 65 °C.

`CCCOC(=O)/C(C#N)=C(\N)C(CC)CSC` (stereo not shown) [Example 2.3, n-Propyl (2Z)-3-amino-2-cyano-4-[(methylsulfanyl)methyl]-2-hexenoate] gave a melting point of 78 °C.

`CCOC(=O)/C(C#N)=C(\N)C(C)(C)CC` [Example 2.8] had a melting point of 65 to 67 °C.

The compound `CCC(CC)/C(N)=C(\C#N)C(=O)OCCOC` [Example 2.22] showed a melting point of 70 °C. Moreover, the “post-emergence activity against the undesirable plant Pharbitis purpurea” value in data set [1] was “very good”. The “effect on the harmful plant Setaria faberii, pre-emergence method” value in data set [2] is on record as “very good”.

Compound `CCOC(=O)/C(C#N)=C(\N)C(C)CC` (stereo not shown) [Example 2.6] returned a melting point of 102 to 103 °C.

The compound `CCOC(=O)/C(C#N)=C(\N)C(CC)CC` [Example 2.1, Ethyl (2Z)-3-amino-2-cyano-4-ethyl-2-hexenoate] came in with a melting point of 85 to 87 °C. Moreover, in data set [1], the “post-emergence activity against the undesirable plant Pharbitis purpurea” value is “very good”. The “post-emergence activity against the undesirable plant Setaria faberii” value in data set [3] was “very good”. Further, the “effect on the harmful plant Amaranthus retroflexus, pre-emergence method” value in data set [4] is “very good”. The “effect on the harmful plant Setaria faberii, pre-emergence method” value in data set [2] was “very good”.

As to `CCOCCOC(=O)/C(C#N)=C(\N)C(CC)CC` [Example 2.23], the melting point came out at 70 °C.

As to `CCCOC(=O)/C(C#N)=C(\N)C(CC)CC` [Example 2.2, n-Propyl (2Z)-3-amino-2-cyano-4-ethyl-2-hexenoate], the melting point was determined as 84 °C. Besides, the “post-emergence activity against the undesirable plant Pharbitis purpurea” value in data set [1] is on record as “very good”. The “effect on the harmful plant Setaria faberii, pre-emergence method” value in data set [2] is listed as “very good”. The “effect on the harmful plant Digitaria sanguinalis, pre-emergence method” value in data set [5] is reported as “very good”.

As usually defined, the melting point is the temperature, or range, at which the solid turns liquid.
